# US12433903B2 (priority 2021, dated 2025)
# “And” between values parts separate entries of the source, which are not always exact repeats. Equal entries are not always repeated.
# Columns and labels:
# [1] = test system: cryopreserved hepatocytes; test: Hepatocyte stability and metabolite profiling, human; format: in vitro ADME; conditions: human hepatocyte samples, 40 and 60 minute
# Method: The objective of this study was to investigate the stability of the test compound, CBG, in human, rat, dog, mouse, monkey and minipig cryopreserved hepatocytes. Follow-on metabolite profiling was performed.
# CBG was incubated up to 2 hr with cryopreserved hepatocytes. Cryopreserved hepatocytes in suspension were added to test compound in supplemented media following pre-incubation to initiate the reaction and the reactions were stopped by organic solvent at the appropriate time points. The termination plates were centrifuged and sample supernatants were analysed using Cyprotex generic LC MS/MS conditions to generate intrinsic clearance values for CBG. Two control compounds for each species were included in the assay and if the values for these compounds were not within the specified limits the results were rejected and the experiment repeated.
# Following the hepatocyte stability assay the samples were 59 tilized for metabolite profiling using suitable high-resolution LC-MS/MS conditions. The 40 and 60 minute human samples, 20 and 120 minute rat samples, 10 and 20 minute dog and monkey samples, 20 and 60 minute mouse samples, and 40 and 120 minute minipig samples were compared against the 0 minute control sample to establish which and how many metabolites were formed. […]
# The areas and percentages reported for the parent and metabolites were calculated using the XIC data. […]
# [2] = Quantification of CBG and CBG glucuronide in rat plasma and brain after oral gavage; format: in vivo, Sprague-Dawley rat; conditions: for CBG concentration in rat plasma (Day 21) / CBG concentration in rat brain tissue (Day 21) / CBG concentration in rat plasma (Day 1): individual rats; for CBG concentration in rat brain tissue (Day 21) / CBG concentration in rat brain tissue (Day 21), Average: 24 hrs post Rx
# Method: The purpose of this study was to quantify cannabigerol (CBG) in rat plasma and brain.
# Seven- to nine-week-old male and female Sprague-Dawley received either a single dose or once daily dosing for 21 clays of vehicle or CBG at three different dosage levels as shown in the Table below.
# Approximately 0.2-0.25 mL blood was collected during the first 24 hours after the single dose, and at multiple times points after the terminal dose for the animals receiving daily dosing for 21 days. Liver, kidney, and colon samples were collected and fixed in 10% NBF for 48 hours, then stored in 70% ethanol at room temperature. Brain samples were collected and flash frozen.
# Analytical curves were constructed using non-zero standards with CBG concentration ranging from 0.0025 to 2.500 μg/mL and […] in blank rat plasma samples and 1.0 to 2500 ng/mL in blank brain tissues. A blank sample was used to exclude contamination.
# Instrument Used: AB SCIEX QTRAP 4500/Shimadzu Prominence LC
# [3] = test system: p-cMyc(S62), cMyc, p-AKT(S473), AKT, p-ERK(T202/Y204), ERK in SW620, HCT15, HCT116 cells; test: Target engagement by Western blot in colon cancer cell lines; format: cell-based; conditions: HCT 116 cells; 10-80 μM, 3 hours; with a dose effect
# Method: For Western blot, the compounds were tested at 4 concentrations for 3 hours on 3 colon cancer cell lines. The compounds, concentrations, colon cancer cell line panel, and antibodies panel tested are the following: • CBG: 0 μM, 10 μM, 20 μM, 40 μM, and 80 μM. • Compound 1: 0 μM, 10 μM, 20 μM, 40 μM, and 80 μM. • Compound 2: 0 μM, 10 μM, 20 μM, 40 μM, and 80 μM. • Colon cancer cell line panel: SW620, HCT15, HCT116 • Antibodies panel: p-cMYC(S62), cMyc, p-AKT(S473), AKT, p-ERK(T202/Y204), ERK Methods
# Evaluation of target engagement was performed to determine the expression of specific marker protein expression and underlying signaling pathways with Western blot.
# Western blot. Whole cell extracts were prepared by incubating cell pellets in IP lysis buffer supplemented with protease and phosphatase inhibitors (Roche). Isolated protein was quantified by Pierce BCA Protein assay (ThermoFisher). Equal quantities of protein were separated by 4-15% SDS-PAGE electrophoresis gels and transferred onto nitrocellulose membranes. Membranes was blocked with 5% nonfat milk in Tris-buffered saline-Tween buffer. […]
smiles,measurement,setting,value
"CCCCCc1cc(O)c(C/C=C(\C)CCC=C(C)C)c(O)c1 [CBG, cannabigerol]",metabolites observed (number),[1],Seven
same,CBG concentration in rat plasma (Day 21),"[2]; CBG 10 mg/kg oral gavage once daily, 15 min post Rx",BLQ (Below Limit of Quantification (2.5 ng/mL))
same,CBG concentration in rat plasma (Day 21),"[2]; CBG 10 mg/kg oral gavage once daily, 30 min post Rx",BLQ (Below Limit of Quantification (2.5 ng/mL))
same,CBG concentration in rat plasma (Day 21),"[2]; CBG 10 mg/kg oral gavage once daily, 1 hr post Rx",BLQ (Below Limit of Quantification (2.5 ng/mL)) (4×) and 1.67 ng/mL and 2.75 ng/mL
same,CBG concentration in rat plasma (Day 21),"[2]; CBG 10 mg/kg oral gavage once daily, 2 hr post Rx",BLQ (Below Limit of Quantification (2.5 ng/mL)) (3×) and 5.6 ng/mL and 9.5 ng/mL and 2.72 ng/mL
same,CBG concentration in rat plasma (Day 21),"[2]; CBG 10 mg/kg oral gavage once daily, 4 hr post Rx",BLQ (Below Limit of Quantification (2.5 ng/mL)) (4×) and 4.73 ng/mL and 8.49 ng/mL
same,CBG concentration in rat plasma (Day 21),"[2]; CBG 10 mg/kg oral gavage once daily, 8 hr post Rx",BLQ (Below Limit of Quantification (2.5 ng/mL)) (4×) and 2.55 ng/mL and 4.18 ng/mL
same,CBG concentration in rat plasma (Day 21),"[2]; CBG 10 mg/kg oral gavage once daily, 24 hr post Rx",BLQ (Below Limit of Quantification (2.5 ng/mL))
same,CBG concentration in rat brain tissue (Day 21),[2]; CBG 10 mg/kg oral gavage once daily,BLQ (Below Limit of Quantification (1.0 ng/g))
same,CBG concentration in rat plasma (Day 1),"[2]; CBG 10 mg/kg oral gavage once, 15 min post Rx",BLQ (Below Limit of Quantification (2.5 ng/mL))
same,CBG concentration in rat plasma (Day 1),"[2]; CBG 10 mg/kg oral gavage once, 30 min post Rx",BLQ (Below Limit of Quantification (2.5 ng/mL))
same,CBG concentration in rat plasma (Day 1),"[2]; CBG 10 mg/kg oral gavage once, 1 hr post Rx",5.3 ng/mL and BLQ (Below Limit of Quantification (2.5 ng/mL)) (2×) and 18.6 ng/mL and 7.3 ng/mL
same,CBG concentration in rat plasma (Day 1),"[2]; CBG 10 mg/kg oral gavage once, 2 hr post Rx",10.7 ng/mL and BLQ (Below Limit of Quantification (2.5 ng/mL)) and 14.6 ng/mL and 11.5 ng/mL and 12.0 ng/mL
same,CBG concentration in rat plasma (Day 1),"[2]; CBG 10 mg/kg oral gavage once, 4 hr post Rx",BLQ (Below Limit of Quantification (2.5 ng/mL))
same,CBG concentration in rat plasma (Day 1),"[2]; CBG 10 mg/kg oral gavage once, 8 hr post Rx",BLQ (Below Limit of Quantification (2.5 ng/mL))
same,CBG concentration in rat plasma (Day 1),"[2]; CBG 10 mg/kg oral gavage once, 24 hr post Rx",BLQ (Below Limit of Quantification (2.5 ng/mL))
same,CBG concentration in rat plasma (Day 21),"[2]; CBG 30 mg/kg oral gavage once daily, 15 min post Rx",BLQ (Below Limit of Quantification (2.5 ng/mL)) (3×) and 14.7 ng/mL and 4.51 ng/mL and 9.12 ng/mL
same,CBG concentration in rat plasma (Day 21),"[2]; CBG 30 mg/kg oral gavage once daily, 30 min post Rx",BLQ (Below Limit of Quantification (2.5 ng/mL))
same,CBG concentration in rat plasma (Day 21),"[2]; CBG 30 mg/kg oral gavage once daily, 1 hr post Rx",BLQ (Below Limit of Quantification (2.5 ng/mL))
same,CBG concentration in rat plasma (Day 21),"[2]; CBG 30 mg/kg oral gavage once daily, 2 hr post Rx",BLQ (Below Limit of Quantification (2.5 ng/mL))
same,CBG concentration in rat plasma (Day 21),"[2]; CBG 30 mg/kg oral gavage once daily, 4 hr post Rx",BLQ (Below Limit of Quantification (2.5 ng/mL))
same,CBG concentration in rat plasma (Day 21),"[2]; CBG 30 mg/kg oral gavage once daily, 8 hr post Rx",BLQ (Below Limit of Quantification (2.5 ng/mL))
same,CBG concentration in rat plasma (Day 21),"[2]; CBG 30 mg/kg oral gavage once daily, 24 hr post Rx",BLQ (Below Limit of Quantification (2.5 ng/mL))
same,CBG concentration in rat brain tissue (Day 21),[2]; CBG 30 mg/kg oral gavage once daily,BLQ (Below Limit of Quantification (1.0 ng/g)) (5×) and 43.8 ng/g
same,CBG concentration in rat plasma (Day 1),"[2]; CBG 30 mg/kg oral gavage once, 15 min post Rx",3.8 ng/mL and 7.6 ng/mL and BLQ (Below Limit of Quantification (2.5 ng/mL)) (4×)
same,CBG concentration in rat plasma (Day 1),"[2]; CBG 30 mg/kg oral gavage once, 30 min post Rx",15.2 ng/mL and BLQ (Below Limit of Quantification (2.5 ng/mL)) (5×)
same,CBG concentration in rat plasma (Day 1),"[2]; CBG 30 mg/kg oral gavage once, 1 hr post Rx",22.9 ng/mL and 32.3 ng/mL and 32.5 ng/mL and 1.08 ng/mL and 31.2 ng/mL and 35.9 ng/mL
same,CBG concentration in rat plasma (Day 1),"[2]; CBG 30 mg/kg oral gavage once, 2 hr post Rx",BLQ (Below Limit of Quantification (2.5 ng/mL)) (2×) and 11.0 ng/mL and 26.6 ng/mL and 78.6 ng/mL and 36.0 ng/mL
same,CBG concentration in rat plasma (Day 1),"[2]; CBG 30 mg/kg oral gavage once, 4 hr post Rx",24.5 ng/mL and BLQ (Below Limit of Quantification (2.5 ng/mL)) (2×) and 54.3 ng/mL and 62.1 ng/mL and 48.3 ng/mL
same,CBG concentration in rat plasma (Day 1),"[2]; CBG 30 mg/kg oral gavage once, 8 hr post Rx",BLQ (Below Limit of Quantification (2.5 ng/mL))
same,CBG concentration in rat plasma (Day 1),"[2]; CBG 30 mg/kg oral gavage once, 24 hr post Rx",BLQ (Below Limit of Quantification (2.5 ng/mL)) (5×) and 2.75 ng/mL
same,CBG concentration in rat plasma (Day 21),"[2]; CBG 100 mg/kg oral gavage once daily, 15 min post Rx",BLQ (Below Limit of Quantification (2.5 ng/mL)) (4×) and 41.6 ng/mL
same,CBG concentration in rat plasma (Day 21),"[2]; CBG 100 mg/kg oral gavage once daily, 30 min post Rx",BLQ (Below Limit of Quantification (2.5 ng/mL)) (3×) and 178.5 ng/mL and 122.5 ng/mL
same,CBG concentration in rat plasma (Day 21),"[2]; CBG 100 mg/kg oral gavage once daily, 1 hr post Rx",BLQ (Below Limit of Quantification (2.5 ng/mL)) (3×) and 225.5 ng/mL and 206.0 ng/mL
same,CBG concentration in rat plasma (Day 21),"[2]; CBG 100 mg/kg oral gavage once daily, 2 hr post Rx",307.0 ng/mL and 201.0 ng/mL and 278.0 ng/mL and BLQ (Below Limit of Quantification (2.5 ng/mL)) and 275.5 ng/mL
same,CBG concentration in rat plasma (Day 21),"[2]; CBG 100 mg/kg oral gavage once daily, 4 hr post Rx",BLQ (Below Limit of Quantification (2.5 ng/mL)) and 171.0 ng/mL and 129.5 ng/mL and 185.0 ng/mL and 905.0 ng/mL and 417.0 ng/mL
same,CBG concentration in rat plasma (Day 21),"[2]; CBG 100 mg/kg oral gavage once daily, 8 hr post Rx",BLQ (Below Limit of Quantification (2.5 ng/mL)) (2×) and 215.0 ng/mL and 905.0 ng/mL and 3095.0 ng/mL and 373.0 ng/mL
same,CBG concentration in rat plasma (Day 21),"[2]; CBG 100 mg/kg oral gavage once daily, 24 hr post Rx",BLQ (Below Limit of Quantification (2.5 ng/mL))
same,"CBG concentration in rat brain tissue (Day 21), Average","[2]; CBG 100 mg/kg oral gavage once daily, female rats",299.27 ng/g
same,CBG concentration in rat brain tissue (Day 21),[2]; CBG 100 mg/kg oral gavage once daily,53.0 ng/g and 108.0 ng/g and 1460.0 ng/g and 271.0 ng/g and 580.0 ng/g and 46.8 ng/g
same,"CBG concentration in rat brain tissue (Day 21), Average","[2]; CBG 100 mg/kg oral gavage once daily, male rats",540.33 ng/g
same,CBG concentration in rat plasma (Day 1),"[2]; CBG 100 mg/kg oral gavage once, 15 min post Rx",BLQ (Below Limit of Quantification (2.5 ng/mL))
same,CBG concentration in rat plasma (Day 1),"[2]; CBG 100 mg/kg oral gavage once, 30 min post Rx",BLQ (Below Limit of Quantification (2.5 ng/mL))
same,CBG concentration in rat plasma (Day 1),"[2]; CBG 100 mg/kg oral gavage once, 1 hr post Rx",BLQ (Below Limit of Quantification (2.5 ng/mL))
same,CBG concentration in rat plasma (Day 1),"[2]; CBG 100 mg/kg oral gavage once, 2 hr post Rx",BLQ (Below Limit of Quantification (2.5 ng/mL))
same,CBG concentration in rat plasma (Day 1),"[2]; CBG 100 mg/kg oral gavage once, 4 hr post Rx",BLQ (Below Limit of Quantification (2.5 ng/mL)) (4×) and 119.0 ng/mL and 143.0 ng/mL
same,CBG concentration in rat plasma (Day 1),"[2]; CBG 100 mg/kg oral gavage once, 8 hr post Rx",BLQ (Below Limit of Quantification (2.5 ng/mL))
same,CBG concentration in rat plasma (Day 1),"[2]; CBG 100 mg/kg oral gavage once, 24 hr post Rx",BLQ (Below Limit of Quantification (2.5 ng/mL))
same,concentration of CBG in plasma (in words),"[2]; oral gavage 10-100 mg/kg, Day 1 and Day 21",low or below the level of quantitation (BLQ)
same,CBG in brain (in words),"[2]; oral gavage, Day 21",not detected
same,first pass metabolism to the glucuronide (in words),[2]; upon oral administration,very high
"CCCCCc1cc(O)c(C/C=C(\C)CCC=C(C)C)c(OC)c1 [Compound 1, (E)-2-(3,7-dimethylocta-2,6-dien-1-yl)-3-methoxy-5-pentylphenol]",pAKT(S473) (Western blot),[3],down-regulated
